From patent US11691949B2, “Quinoline sulfonamide compounds and their use as antibacterial agents” (OTAGO INNOVATION LIMITED, priority 2017, dated 2023)
In brackets after ≈: the same amount, converted by molar mass. Counter-ions that a name gives are not always drawn. Like-named read-outs stand apart in the source and are kept apart here.

Assays:
Assay type in all cases: cell-based
S. aureus ATCC 6538 = experiment: MIC by broth microdilution, S. aureus; conditions: Staphylococcus aureus
Outline: (§1)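 Overnight cultures diluted to ~5×10^5 cfu/mL final; S. aureus in TSB and CAMHB, E. coli in LB and CAMHB, zinc sulphate to 50 μM final as required; two-fold serial dilutions. MIC = lowest concentration with no growth by OD600 after 24 h, 37° C, 200 rpm. MBC by Miles-Misra drop-plate viability count.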

S. uberis ATCC 19436 = experiment: MIC by broth microdilution, S. uberis; conditions: Streptococcus uberis
Outline: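 This broth microdilution assay used S. uberis ATCC 19436 in Todd Hewitt Broth, with zinc sulphate heptahydrate added where required to a final 50 μM. Inhibitor concentration ranges came from two-fold serial dilutions in 96-well flat bottom plates at 200 μl. Approximately 5×10^5 cfu/mL cells were incubated for 24 h at 37° C. and 200 rpm. Wells were then read at OD600 on a Varioskan Flash reader.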

E. coli ATCC 10596 = experiment: MIC by broth microdilution, E. coli; conditions: Escherichia coli
Outline: as §1

[1] = ATCC6538, No Zinc, read-out: S. aureus ATCC 6538 MIC
[2] = ATCC6538, Zinc (50 μM), read-out: S. aureus ATCC 6538 MIC
[3] = ATCC19436, No Zinc, read-out: S. uberis ATCC 19436 MIC
[4] = ATCC19436, Zinc (50 μM), read-out: S. uberis ATCC 19436 MIC
[5] = ATCC 10536 / ATCC 10596, No Zinc, read-out: E. coli ATCC 10536 MIC
[6] = ATCC 10536 / ATCC 10596, Zinc (50 μM), read-out: E. coli ATCC 10536 MIC
[7] = ATCC6538, read-out: S. aureus ATCC 6538 MIC, No Zinc
[8] = ATCC6538, read-out: S. aureus ATCC 6538 MIC, Zinc (50 μM)
[9] = ATCC19436, read-out: S. uberis ATCC 19436 MIC, No Zinc
[10] = ATCC19436, read-out: S. uberis ATCC 19436 MIC, Zinc (50 μM)
[11] = ATCC 10536 / ATCC 10596, read-out: E. coli ATCC 10536 MIC, No Zinc
[12] = ATCC 10536 / ATCC 10596, read-out: E. coli ATCC 10536 MIC, Zinc (50 μM)

Structure (SMILES)	MIC (S. aureus ATCC 6538; [1])	MIC (S. aureus ATCC 6538; [2])	MIC (S. uberis ATCC 19436; [3])	MIC (S. uberis ATCC 19436; [4])	MIC (E. coli ATCC 10596; [5])	MIC (E. coli ATCC 10596; [6])	MIC (S. aureus ATCC 6538; [7])	MIC (S. aureus ATCC 6538; [8])	MIC (S. uberis ATCC 19436; [9])	MIC (S. uberis ATCC 19436; [10])	MIC (E. coli ATCC 10596; [11])	MIC (E. coli ATCC 10596; [12])
CN(C)Cc1ccc2cccc(NS(=O)(=O)c3cccc4nsnc34)c2n1 [ZDR196, N-(2-((Dimethylamino)methyl)quinolin-8-yl)benzo[c][1,2,5]thiadiazole-4-sulfonamide]	> 256 µg/mL	32 µg/mL (≈ 80.1 µM)	256 µg/mL (≈ 641 µM)	0.0625 µg/mL (≈ 0.156 µM)	> 256 µg/mL	> 256 µg/mL	–	–	–	–	–	–
CN(C)Cc1ccc2cccc(NS(=O)(=O)c3ccccc3F)c2n1 [ZDR201, N-(2-((Dimethylamino)methyl)quinolin-8-yl)-2-fluorobenzenesulfonamide]	> 256 µg/mL	32 µg/mL (≈ 89 µM)	128 µg/mL (≈ 356 µM)	0.0625 µg/mL (≈ 0.174 µM)	> 256 µg/mL	> 256 µg/mL	–	–	–	–	–	–
Cc1nc(C)c(S(=O)(=O)Nc2cccc3ccc(CN(C)C)nc23)s1 [ZDR203, N-(2-((Dimethylamino)methyl)quinolin-8-yl)-2,4-dimethylthiazole-5-sulfonamide]	> 256 µg/mL	64 µg/mL (≈ 170 µM)	256 µg/mL (≈ 680 µM)	0.5 µg/mL (≈ 1.33 µM)	> 256 µg/mL	> 256 µg/mL	–	–	–	–	–	–
CN(C)Cc1ccc2cccc(NS(=O)(=O)N3CCCC3)c2n1 [ZDR204, N-(2-((Dimethylamino)methyl)quinolin-8-yl)pyrrolidine-1-sulfonamide]	> 256 µg/mL	256 µg/mL (≈ 765 µM)	256 µg/mL (≈ 765 µM)	0.5 µg/mL (≈ 1.5 µM)	> 256 µg/mL	> 256 µg/mL	–	–	–	–	–	–
CS(=O)(=O)NCc1ccc2cccc(NS(=O)(=O)c3ccc(C(F)(F)F)cc3)c2n1 [ZDR209, N-(2-(Methylsulfonamidomethyl)quinolin-8-yl)-4-(trifluoromethyl)benzenesulfonamide]	> 256 µg/mL	> 256 µg/mL	> 256 µg/mL	1 µg/mL (≈ 2.18 µM)	> 256 µg/mL	> 256 µg/mL	–	–	–	–	–	–
O=S(=O)(NCc1ccc2cccc(NS(=O)(=O)c3ccc(C(F)(F)F)cc3)c2n1)c1ccccc1 [ZDR210, N-(2-(Phenylsulfonamidomethyl)quinolin-8-yl)-4-(trifluoromethyl)benzenesulfonamide]	> 256 µg/mL	> 256 µg/mL	> 256 µg/mL	0.25 µg/mL (≈ 0.479 µM)	> 256 µg/mL	> 256 µg/mL	–	–	–	–	–	–
CN(C)CCCC(=O)NCc1ccc2cccc(NS(=O)(=O)c3ccc(C(F)(F)F)cc3)c2n1 [ZDR211, 4-(Dimethylamino)-N-((8-((4-(trifluoromethyl)phenyl)sulfonamido)quinolin-2-yl)methyl)butanamide trifluoroacetate]	–	–	–	–	–	–	128 µg/mL	64 µg/mL	64 µg/mL	16 µg/mL	128 µg/mL	128 µg/mL
CSc1ccc(S(=O)(=O)Nc2cccc3ccc(CN(C)C)nc23)cc1 [ZDR257, N-(2-((Dimethylamino)methyl)quinolin-8-yl)-4-(methylthio)benzenesulfonamide]	> 256 µg/mL	> 256 µg/mL	> 256 µg/mL	0.0625 µg/mL (≈ 0.161 µM)	> 256 µg/mL	> 256 µg/mL	–	–	–	–	–	–
COc1ccc(S(=O)(=O)Nc2cccc3ccc(CN(C)C)nc23)cn1 [ZDR258, N-(2-((Dimethylamino)methyl)quinolin-8-yl)-6-methoxypyridine-3-sulfonamide]	> 256 µg/mL	> 256 µg/mL	256 µg/mL (≈ 687 µM)	0.125 µg/mL (≈ 0.336 µM)	> 256 µg/mL	> 256 µg/mL	–	–	–	–	–	–
C=CCS(=O)(=O)Nc1cccc2ccc(CN(C)C)nc12 [ZDR259, N-(2-((Dimethylamino)methyl)quinolin-8-yl)prop-2-ene-1-sulfonamide]	> 256 µg/mL	256 µg/mL (≈ 838 µM)	> 256 µg/mL	0.25 µg/mL (≈ 0.819 µM)	> 256 µg/mL	> 256 µg/mL	–	–	–	–	–	–
O=C(CNCc1ccc2cccc(NS(=O)(=O)c3ccc(C(F)(F)F)cc3)c2n1)NCCCN1CCCCC1 [ZDR262, N-(3-(Piperidin-1-yl)propyl)-2-(((8-((4-(trifluoromethyl)phenyl)sulfonamido)quinolin-2-yl)methyl)amino)acetamide di-trifluoroacetate]	–	–	–	–	–	–	64 µg/mL (≈ 114 µM)	128 µg/mL (≈ 227 µM)	8 µg/mL (≈ 14.2 µM)	16 µg/mL (≈ 28.4 µM)	32 µg/mL (≈ 56.8 µM)	64 µg/mL (≈ 114 µM)
CN(C)Cc1ccc2cccc(NS(=O)(=O)C3CCNCC3)c2n1 [ZDR263, N-(2-((Dimethylamino)methyl)quinolin-8-yl)piperidine-4-sulfonamide di-trifluoroacetate]	–	–	–	–	–	–	> 256 µg/mL	> 256 µg/mL	> 256 µg/mL	256 µg/mL (≈ 735 µM)	> 256 µg/mL	> 256 µg/mL
O=C(CNCc1ccc2cccc(NS(=O)(=O)c3ccc(C(F)(F)F)cc3)c2n1)NC(CO)(CO)CO [ZDR265, N-(1,3-Dihydroxy-2-(hydroxymethyl)propan-2-yl)-2-(((8-((4-(trifluoromethyl)phenyl)sulfonamido)quinolin-2-yl)methyl)amino)acetamide trifluoroacetate]	–	–	–	–	–	–	64 µg/mL	64 µg/mL	128 µg/mL	256 µg/mL	256 µg/mL	256 µg/mL

The next lines start with results.

MIC (S. aureus ATCC 6538; [1])	MIC (S. aureus ATCC 6538; [2])	MIC (S. uberis ATCC 19436; [3])	MIC (S. uberis ATCC 19436; [4])	MIC (E. coli ATCC 10596; [5])	MIC (E. coli ATCC 10596; [6])	Structure (SMILES)	MIC (S. aureus ATCC 6538; [7])	MIC (S. aureus ATCC 6538; [8])	MIC (S. uberis ATCC 19436; [9])	MIC (S. uberis ATCC 19436; [10])	MIC (E. coli ATCC 10596; [11])	MIC (E. coli ATCC 10596; [12])
> 256 µg/mL	> 256 µg/mL	> 256 µg/mL	0.25 µg/mL (≈ 0.401 µM)	> 256 µg/mL	> 256 µg/mL	CC(C)(C)OC(=O)N=C(NCc1ccc2cccc(NS(=O)(=O)c3ccc(C(F)(F)F)cc3)c2n1)NC(=O)OC(C)(C)C [ZDR186, N-(2-(N,N′-Bis-Boc-Guanidinomethyl)quinolin-8-yl)-4-(trifluoromethyl)benzenesulfonamide]	–	–	–	–	–	–
> 256 µg/mL	> 256 µg/mL	> 256 µg/mL	0.5 µg/mL (≈ 1.07 µM)	> 256 µg/mL	> 256 µg/mL	N/C(=N\[N+](=O)[O-])NCc1ccc2cccc(NS(=O)(=O)c3ccc(C(F)(F)F)cc3)c2n1 [ZDR188, (E)-N-(2-((2-Nitroguanidino)methyl)quinolin-8-yl)-4-(trifluoromethyl)benzenesulfonamide]	–	–	–	–	–	–
> 256 µg/mL	> 256 µg/mL	256 µg/mL (≈ 681 µM)	1 µg/mL (≈ 2.66 µM)	> 256 µg/mL	> 256 µg/mL	CN(C)Cc1ccc2cccc(NS(=O)(=O)c3ccccc3Cl)c2n1 [ZDR190, 2-Chloro-N-(2-((dimethylamino)methyl)quinolin-8-yl)benzenesulfonamide]	–	–	–	–	–	–
> 256 µg/mL	> 256 µg/mL	256 µg/mL (≈ 602 µM)	0.125 µg/mL (≈ 0.294 µM)	> 256 µg/mL	> 256 µg/mL	CN(C)Cc1ccc2cccc(NS(=O)(=O)c3ccccc3OC(F)(F)F)c2n1 [ZDR191, N-(2-((Dimethylamino)methyl)quinolin-8-yl)-2-(trifluoromethoxy)benzenesulfonamide]	–	–	–	–	–	–
> 256 µg/mL	> 256 µg/mL	> 256 µg/mL	1 µg/mL (≈ 2.85 µM)	> 256 µg/mL	> 256 µg/mL	CN(C)Cc1ccc2cccc(NS(=O)(=O)N3CCOCC3)c2n1 [ZDR192, N-(2-((Dimethylamino)methyl)quinolin-8-yl)morpholine-4-sulfonamide]	–	–	–	–	–	–
> 256 µg/mL	> 256 µg/mL	128 µg/mL (≈ 367 µM)	0.25 µg/mL (≈ 0.717 µM)	> 256 µg/mL	> 256 µg/mL	CN(C)Cc1ccc2cccc(NS(=O)(=O)N3CCCCC3)c2n1 [ZDR193, N-(2-((Dimethylamino)methyl)quinolin-8-yl)piperidine-1-sulfonamide]	–	–	–	–	–	–
> 256 µg/mL	> 256 µg/mL	> 256 µg/mL	4 µg/mL (≈ 11.6 µM)	> 256 µg/mL	> 256 µg/mL	CN(C)Cc1ccc2cccc(NS(=O)(=O)c3cnn(C)c3)c2n1 [ZDR194, N-(2-((Dimethylamino)methyl)quinolin-8-yl)-1-methyl-1H-pyrazole-4-sulfonamide]	–	–	–	–	–	–
> 256 µg/mL	> 256 µg/mL	> 256 µg/mL	32 µg/mL (≈ 92.6 µM)	> 256 µg/mL	> 256 µg/mL	CN(C)Cc1ccc2cccc(NS(=O)(=O)c3cn(C)cn3)c2n1 [ZDR195, N-(2-((Dimethylamino)methyl)quinolin-8-yl)-1-methyl-1H-imidazole-4-sulfonamide]	–	–	–	–	–	–
256 µg/mL (≈ 609 µM)	> 256 µg/mL	256 µg/mL (≈ 609 µM)	0.125 µg/mL (≈ 0.297 µM)	> 256 µg/mL	> 256 µg/mL	CN(C)Cc1ccc2cccc(NS(=O)(=O)c3ccccc3Br)c2n1 [ZDR202, 2-Bromo-N-(2-((dimethylamino)methyl)quinolin-8-yl)benzenesulfonamide]	–	–	–	–	–	–
128 µg/mL (≈ 274 µM)	64 µg/mL (≈ 137 µM)	256 µg/mL (≈ 549 µM)	0.125 µg/mL (≈ 0.268 µM)	> 256 µg/mL	> 256 µg/mL	CN(C)CC(=O)NCc1ccc2cccc(NS(=O)(=O)c3ccc(C(F)(F)F)cc3)c2n1 [ZDR205, 2-(Dimethylamino)-N-((8-((4-(trifluoromethyl)phenyl)sulfonamido)quinolin-2-yl)methyl)acetamide]	–	–	–	–	–	–
